From ChEMBL document CHEMBL3785016, “Design, synthesis, and anti-breast cancer evaluation of new triarylethylene analogs bearing short alkyl- and polar amino-/amido-ethyl chains” (Bioorg Med Chem Lett, 2016)
The source made the active and inactive calls. The rule behind the calls is not given here.

Experiments:
MCF7 [1] = experiment: Cytotoxicity against human ER-positive MCF7 cells assessed as cell viability after 72 hrs by MTT assay; type: functional, cell-based
MDA-MB-231 [2] = experiment: Cytotoxicity against human ER-negative MDA-MB-231 cells assessed as cell viability after 72 hrs by MTT assay; type: functional, cell-based; conditions: for IC50: MDA-MB-231, 72 h
MDA-MB-231 [3] = experiment: Antimigratory activity in human ER-negative MDA-MB-231 cells assessed as cell migration level at 1 uM after 24 hrs by scratch assay; type: functional
MDA-MB-231 [4] = experiment: Inhibition of c-Myc expression in human ER-negative MDA-MB-231 cells at 10 and 25 uM after 24 hrs by western blotting; type: functional, cell-based
MCF7 [5] = experiment: Inhibition of caveolin-1 expression in human ER-positive MCF7 cells at 10 and 25 uM after 24 hrs by western blotting; type: functional, cell-based
MCF7 [6] = experiment: Inhibition of c-Myc expression in human ER-positive MCF7 cells at 10 and 25 uM after 24 hrs by western blotting; type: functional, cell-based
MCF7 [7] = experiment: Inhibition of MMP9 expression in human ER-positive MCF7 cells at 10 and 25 uM after 24 hrs by western blotting; type: functional, cell-based
MDA-MB-231 [8] = experiment: Inhibition of caveolin-1 expression in human ER-negative MDA-MB-231 cells at 10 and 25 uM after 24 hrs by western blotting; type: functional, cell-based
MDA-MB-231 [9] = experiment: Inhibition of MMP9 expression in human ER-negative MDA-MB-231 cells at 10 and 25 uM after 24 hrs by western blotting; type: functional, cell-based
MDA-MB-231 [10] = experiment: Antimigratory activity in human ER-negative MDA-MB-231 cells assessed as cell migration level at 0.5 uM after 24 hrs by scratch assay; type: functional
MDA-MB-231 [11] = experiment: Inhibition of MMP9 expression in human ER-negative MDA-MB-231 cells after 24 hrs by western blotting; type: functional, cell-based
MDA-MB-231 [12] = experiment: Inhibition of c-Myc expression in human ER-negative MDA-MB-231 cells after 24 hrs by western blotting; type: functional, cell-based
MDA-MB-231 [13] = experiment: Inhibition of caveolin-1 expression in human ER-negative MDA-MB-231 cells after 24 hrs by western blotting; type: functional, cell-based
MCF7 [14] = experiment: Inhibition of MMP9 expression in human ER-positive MCF7 cells after 24 hrs by western blotting; type: functional, cell-based
MCF7 [15] = experiment: Inhibition of c-Myc expression in human ER-positive MCF7 cells after 24 hrs by western blotting; type: functional, cell-based
MCF7 [16] = experiment: Inhibition of caveolin-1 expression in human ER-positive MCF7 cells after 24 hrs by western blotting; type: functional, cell-based
MDA-MB-231 [17] = experiment: Inhibition of cell invasion in human ER-negative MDA-MB-231 cells after 24 hrs by Boyden chamber transwell invasion assay; type: functional, cell-based
[18] = Homo sapiens, MCF7, 72 h, read-out: IC50

Structure (SMILES) | IC50 (MCF7 [1]; [18]) [µM] | IC50 (MDA-MB-231 [2]) [µM] | other results
COc1ccc(/C(=C(/CCNC(=O)C(=O)N2CCOCC2)c2ccccc2)c2ccccc2)cc1 | 43.4 | 20 | –
COc1ccc(/C(=C(/CCNC(=O)N2CCCCC2)c2ccccc2)c2ccccc2)cc1 | > 50 | > 50 | –
OCCOc1ccc(/C(=C(/CCCl)c2ccccc2)c2ccccc2)cc1 [OSPEMIFENE] | > 50 | > 50 | Activity (MDA-MB-231 [3]): inactive
COc1ccc(/C(=C(/CCNC(=O)C(=O)N2CCCCC2)c2ccccc2)c2ccccc2)cc1 | > 50 | > 50 | –
COc1ccc(/C(=C(/CCNC(=O)N2CCOCC2)c2ccccc2)c2ccccc2)cc1 | > 50 | 42.8 | –
COc1ccc(/C(=C(/CCNC(=O)NCc2ccccc2)c2ccccc2)c2ccccc2)cc1 | > 50 | > 50 | –
COc1ccc(/C(=C(/CCNC(=O)Oc2ccccc2)c2ccccc2)c2ccccc2)cc1 | – | – | IC50 (MCF7 [1]; mcf7): Not Active; Activity (MDA-MB-231 [2]): inactive
CCN(CC)C(=O)NCC/C(=C(\c1ccccc1)c1ccc(OC)cc1)c1ccccc1 | > 50 | 40.7 | –
COc1ccc(/C(=C(/CCNC(=O)C(=O)NCc2ccccc2)c2ccccc2)c2ccccc2)cc1 | > 50 | 11.5 | Activity (MDA-MB-231 [3]): inactive; inhibition (MDA-MB-231 [4]): Active; inhibition (MCF7 [5]): inactive; inhibition (MCF7 [6]): Active; inhibition (MCF7 [7]): Active; inhibition (MDA-MB-231 [8]): inactive; inhibition (MDA-MB-231 [9]): Active
COc1ccc(/C(=C(/CCNC(=O)N2CCCC2)c2ccccc2)c2ccccc2)cc1 | > 50 | > 50 | –
COc1ccc(/C(=C(/CCCl)c2ccccc2)c2ccccc2)cc1 | > 50 | > 50 | –
COc1ccc(/C(=C(/CCN=[N+]=[N-])c2ccccc2)c2ccccc2)cc1 | – | – | IC50 (MCF7 [1]; mcf7): Not Active; Activity (MDA-MB-231 [2]): inactive
CCOC(=O)C(=O)NCC/C(=C(\c1ccccc1)c1ccc(OC)cc1)c1ccccc1 | > 50 | > 50 | –
COc1ccc(/C(=C(/CCNC(=O)NC2CCCCC2)c2ccccc2)c2ccccc2)cc1 | 37.2 | > 50 | –
COc1ccc(/C(=C(/CCNC(=O)C(=O)NC2CCCCC2)c2ccccc2)c2ccccc2)cc1 | 12.1 | 12.2 | Activity (MDA-MB-231 [3]): inactive; inhibition (MDA-MB-231 [4]): Active; inhibition (MCF7 [5]): inactive; inhibition (MCF7 [6]): Active; inhibition (MCF7 [7]): Active; inhibition (MDA-MB-231 [8]): inactive; inhibition (MDA-MB-231 [9]): Active
COc1ccc(/C(=C(/CCNC(=O)C(=O)N2CCCC2)c2ccccc2)c2ccccc2)cc1 | > 50 | 48.6 | –
COc1ccc(/C(=C(/CCN)c2ccccc2)c2ccccc2)cc1 | – | – | Activity (MDA-MB-231 [10]): 60%; Activity (MDA-MB-231 [3]): 25%; inhibition (MDA-MB-231 [11]): Dose-dependent effect; inhibition (MDA-MB-231 [12]): Dose-dependent effect; inhibition (MDA-MB-231 [13]): Dose-dependent effect; inhibition (MCF7 [14]): Dose-dependent effect; inhibition (MCF7 [15]): Dose-dependent effect; inhibition (MCF7 [16]): Dose-dependent effect; inhibition (MDA-MB-231 [17]): Dose-dependent effect
